From patent publication US12077503B2, “Substituted cyclic amides and their use as herbicides” (FMC CORPORATION, priority 2015, dated 2024) come the findings set out here.

Each structure is given as a SMILES string. Read-outs that look alike come from different tables or passages of the source.

Holding throughout (format): in vivo
Experiment [1] has as its system ryegrass, Italian (Italian ryegrass, Lolium multiflorum). Put plainly: Test A preemergence. As to conditions: Lolium multiflorum, pre-emergence, 240 h; for pest or weed control at 125 g/ha: 125 g ai/ha, Preemergence, visual injury rating after approximately 10 d, read-out: Ryegrass, Italian plant response rating (0 to 100 scale, 0 is no effect, 100 is complete control); for pest or weed control at 500 g/ha: 500 g ai/ha, preemergence, visual injury rating about 10 d after treatment, 0 to 100 scale (0 no effect, 100 complete control), read-out: Ryegrass, Italian plant response rating. Summed up: (§1)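 Greenhouse, ~10 d after spray; visual injury vs untreated controls, 0 = no effect, 100 = complete control. Preemergence: directed soil spray over planted seeds. Postemergence: plants 2–10 cm, 1–2 leaf stage. Loam/sand blend. Compound in non-phytotoxic solvent with surfactant.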

Experiment [2] deals with sedge, umbrella (small-flower umbrella sedge, Cyperus difformis). The experiment is described as follows: Test B flooded paddy test. As to conditions: Cyperus difformis, Flood, 250 g ai/ha, read-out: Sedge, Umbrella plant response rating. In outline:
(§2)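 2-leaf plants; pots flooded 3 cm over soil; cpd added to paddy water; depth held; greenhouse 13–15 d; visual rating vs controls, 0 = no effect, 100 = complete control.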

The subject of experiment [3] is rice (Oryra sativa). Put plainly: Test B flooded paddy test. As to conditions: Oryza sativa, Flood, 250 g ai/ha; scale of 0 to 100 where 0 is no effect and 100 is complete control; read-out: Rice plant response rating. Summed up:
as §2

Experiment [4] relates to barnyardgrass (Echinochloa crus-galli). Put plainly: Test B flooded paddy test. As to conditions: Echinochloa crus-galli, Flood, 250 g ai/ha; scale of 0 to 100 where 0 is no effect and 100 is complete control; read-out: Barnyardgrass plant response rating. Summed up:
as §2

The test system of experiment [5] is ducksalad (Heteranthera limosa). Put plainly: Test B flooded paddy test. As to conditions: Heteranthera limosa, Flood, 250 g ai/ha; scale of 0 to 100 where 0 is no effect and 100 is complete control; read-out: Ducksalad plant response rating. In outline:
as §2

Experiment [6] has as its system pigweed (Amaranthus retroflexus). The experiment is described as follows: Test A postemergence. As to conditions: Amaranthus retroflexus, post-emergence, 240 h, 125 g ai/ha, Postemergence; visual injury after approximately 10 d; 0 to 100 scale where 0 is no effect and 100 is complete control; read-out: Plant response rating, Pigweed. Summed up:
as §1

Experiment [7] concerns corn (Zea mays). Put plainly: Test A postemergence. As to conditions: Zea mays, post-emergence, 240 h, 125 g ai/ha, Postemergence; visual injury after approximately 10 d; 0 to 100 scale where 0 is no effect and 100 is complete control. In outline:
as §1

For experiment [8], the system named is ryegrass, Italian (Italian ryegrass, Lolium multiflorum). The experiment is described as follows: Test A postemergence. As to conditions: Lolium multiflorum, post-emergence, 240 h, 125 g ai/ha, Postemergence; visual injury after approximately 10 d; 0 to 100 scale where 0 is no effect and 100 is complete control; read-out: Plant response rating, Ryegrass, Italian. Summed up:
as §1

Experiment [9] has as its system blackgrass (Alopecurus myosuroides). The experiment is described as follows: Test A postemergence. As to conditions: Alopecurus myosuroides, post-emergence, 240 h, 125 g ai/ha, Postemergence; visual injury after approximately 10 d; 0 to 100 scale where 0 is no effect and 100 is complete control; read-out: Plant response rating, Blackgrass. Summed up:
as §1

The test system of experiment [10] is barnyardgrass (Echinochloa crus-galli). Put plainly: Test A postemergence. As to conditions: Echinochloa crus-galli, post-emergence, 240 h, 125 g ai/ha, Postemergence; visual injury after approximately 10 d; 0 to 100 scale where 0 is no effect and 100 is complete control; read-out: Plant response rating, Barnyardgrass. Summed up:
as §1

Experiment [11] has as its system ragweed (common ragweed, Ambrosia elatior). Put plainly: Test A postemergence. As to conditions: Ambrosia artemisiifolia, post-emergence, 240 h, 125 g ai/ha, Postemergence; visual injury after approximately 10 d; 0 to 100 scale where 0 is no effect and 100 is complete control; read-out: Plant response rating, Ragweed. Summed up:
as §1

Experiment [12] has as its system wheat (Triticum aestivum). Put plainly: Test A postemergence. As to conditions: Triticum aestivum, post-emergence, 240 h, 125 g ai/ha, Postemergence; visual injury after approximately 10 d; 0 to 100 scale where 0 is no effect and 100 is complete control; read-out: Plant response rating, Wheat. Summed up: as §1
Experiment [13] deals with giant foxtail (Setaria faberii). Put plainly: Test A postemergence. As to conditions: Setaria faberi, post-emergence, 240 h, 125 g ai/ha, Postemergence; visual injury after approximately 10 d; 0 to 100 scale where 0 is no effect and 100 is complete control; read-out: Plant response rating, Foxtail, Giant. Summed up:
as §1

In experiment [14] the test system is Galium (catchweed bedstraw, Galium aparine). Put plainly: Test A postemergence. As to conditions: Galium, post-emergence, 240 h, 125 g ai/ha, Postemergence; visual injury after approximately 10 d; 0 to 100 scale where 0 is no effect and 100 is complete control; read-out: Plant response rating, Galium. Summed up: as §1
The mark [15] stands for this setting: 0 to 100 scale where 0 is no effect and 100 is complete control.

In the case of `Cc1ccc([C@H]2CCNC(=O)[C@@H]2C(=O)Nc2cccc(F)c2F)cc1` [Compound 973], the pest or weed control at 125 g/ha is 0% in experiment [1]; 0% in experiment [6]; 20% in [8]; 60% in experiment [9]; 30% in [10]; 0% in [11]. In addition, the pest or weed control at 125 g/ha came out at 70% in [13] and 50% in [14]. Besides, in [1], the pest or weed control at 500 g/ha is 30%. The pest or weed control at 250 g/ha in experiment [2] (scale of 0 to 100 where 0 is no effect and 100 is complete control) turned out to be 0%; in experiment [3] it was 0%; in experiment [4], 0%; in experiment [5] it was 100%. This compound also registered a Corn plant response rating (crop injury, 0 = no effect, 100 = complete kill) at 125 g/ha in experiment [7] of 0%. Moreover, the plant injury at 125 g/ha in [12] amounted to 0%.

`COc1ccc([C@H]2CN(C)C(=O)[C@@H]2C(=O)Nc2ccccc2SC)cc1C(F)(F)F` [Compound 991]: the pest or weed control at 125 g/ha in experiment [1] was determined as 0%; in [6], 0%; in experiment [8], 0%; in experiment [9], 0%; in experiment [10], 30%; in [11], 0%. For the same compound, the pest or weed control at 125 g/ha is 80% in [13] and 0% in [14]. In addition, the pest or weed control at 500 g/ha in [1] was determined as 50%. Also, the pest or weed control at 250 g/ha in experiment [2] (setting [15]) was determined as 0%; in [3] it was 15%; in experiment [4] it was 0%; in experiment [5], 40%. This compound also gave a Corn plant response rating (crop injury, 0 = no effect, 100 = complete kill) at 125 g/ha in experiment [7] of 0%. In addition, in experiment [12], the plant injury at 125 g/ha was 0%.

For `CN1C[C@H](c2cc(F)cc(F)c2)[C@@H](C(=O)Nc2cc(O)ccc2F)C1=O` [Compound 992], the pest or weed control at 125 g/ha in experiment [1], in [6], in experiment [8], in [9], in experiment [10] and in experiment [11] was 0% each time. Moreover, the pest or weed control at 125 g/ha in [13] and in experiment [14] was 0% in each case. In experiment [1], the pest or weed control at 500 g/ha was found to be 0%. For the same compound, the pest or weed control at 250 g/ha in experiment [2] (setting [15]), in experiment [3], in experiment [4] and in experiment [5] was 0% each time. The compound also came in with a Corn plant response rating (crop injury, 0 = no effect, 100 = complete kill) at 125 g/ha in [7] of 0%. In addition, the plant injury at 125 g/ha in experiment [12] worked out at 0%.
